In article PMC4728068, “Mixture Effects of Estrogenic Pesticides at the Human Estrogen Receptor α and β” (PLoS ONE, 2016):
≈ marks a conversion by molar mass, not a printed value.

Tests used:
hERβ = target: T1, hERβ (Homo sapiens, UniProt Q92731); assay: ERβ CALUX assay (U2-OS cell-based luciferase reporter gene); conditions: for estrogenic activity at the hERβ in the ERβ CALUX assay (in words): applied alone; for ERβ CALUX EC01 / ERβ CALUX EC10: single substances; for ERβ CALUX EC01: 1% effect (of 1 nM E2); for ERβ CALUX EC10: 10% effect (of 1 nM E2)
T1 construct: expressed in transfected cells; host or cells: human U2-OS cells
T1 sequence (Q92731 whole entry): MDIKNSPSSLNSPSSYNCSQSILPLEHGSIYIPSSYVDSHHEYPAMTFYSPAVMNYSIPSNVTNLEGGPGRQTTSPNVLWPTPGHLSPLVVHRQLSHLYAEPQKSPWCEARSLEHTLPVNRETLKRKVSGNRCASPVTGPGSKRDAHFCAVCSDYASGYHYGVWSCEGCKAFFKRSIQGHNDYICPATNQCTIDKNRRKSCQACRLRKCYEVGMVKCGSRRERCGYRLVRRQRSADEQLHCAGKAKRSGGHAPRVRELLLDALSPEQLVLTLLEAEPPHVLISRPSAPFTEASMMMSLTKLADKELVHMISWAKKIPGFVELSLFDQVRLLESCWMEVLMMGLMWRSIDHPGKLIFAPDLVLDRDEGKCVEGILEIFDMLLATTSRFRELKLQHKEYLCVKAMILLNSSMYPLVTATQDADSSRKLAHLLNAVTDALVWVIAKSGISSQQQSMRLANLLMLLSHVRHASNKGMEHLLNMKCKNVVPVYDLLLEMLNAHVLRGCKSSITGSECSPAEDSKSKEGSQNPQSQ
Procedure: (§1) The ERα and ERβ CALUX assay were performed to evaluate the effect of the test substances on the hERα and hERβ as described by van der Burg et al. [21] with slight modifications. The pesticides were tested in three independent experiments, individually and as mixtures, in triplicates in 96-well plates. DMSO was used as solvent and was present in the test medium at a maximal concentration of 0.2% v/v. Solvent controls were included in each plate. […] The same plate also contained 3 μM 17α-methyltestosterone as additional estrogenic control as well as 10 nM corticosterone as negative control. […] A prescreen, in which all test substances were tested for estrogenicity between 0.01 μM and 60 μM, was performed. The three highest test substance concentrations and controls were checked for their ability to affect cell membrane integrity by quantification of the lactate dehydrogenase leakage (LDH) with the CytoTox-ONE™ Homogeneous Membrane Integrity Assay (Promega, Madison, WI, USA), which was performed as recommended by the manufacturer. Those test substance concentrations leading to a decline of the effect after a maximum was reached as well as those leading to insolubility were excluded from further experiments.
(§2) Normalized concentration-response data from the YES, ERα and ERβ CALUX assays were analyzed by nonlinear regression after the x-axis with the test substance concentrations was log-transformed. […] All mathematical/statistical analyses were performed using R version 3.1.2 (R Foundation for Statistical Computing, Vienna, Austria).

[1] = Insolubility in the YES assay medium (turbidity at 690 nm, cell-free control plate); conditions: for solubility: kinetic from dmso stock
Source text: (§3) It should be taken into account that an increased turbidity could also mask cytotoxicity.
The concentrations of the test substances to be tested were limited depending on their solubility. […] A decrease of turbidity in the YES assay was assumed to be equivalent to an inhibition of yeast cell growth.

hERα [2] = target: T2, hERα (Homo sapiens, UniProt P03372); assay: YES assay in combination with a saturating concentration of E2 (1 nM): anti-estrogenic or potentiating effects; format: cell-based, yeast; conditions: for maximum to which the effect of 1 nM E2 was enhanced: YES assay, combined with 1 nM E2, normalized to 1 nM E2; for effect when combined with 1 nM E2 in the YES assay (in words): saturating 1 nM E2
T2 sequence (P03372 whole entry): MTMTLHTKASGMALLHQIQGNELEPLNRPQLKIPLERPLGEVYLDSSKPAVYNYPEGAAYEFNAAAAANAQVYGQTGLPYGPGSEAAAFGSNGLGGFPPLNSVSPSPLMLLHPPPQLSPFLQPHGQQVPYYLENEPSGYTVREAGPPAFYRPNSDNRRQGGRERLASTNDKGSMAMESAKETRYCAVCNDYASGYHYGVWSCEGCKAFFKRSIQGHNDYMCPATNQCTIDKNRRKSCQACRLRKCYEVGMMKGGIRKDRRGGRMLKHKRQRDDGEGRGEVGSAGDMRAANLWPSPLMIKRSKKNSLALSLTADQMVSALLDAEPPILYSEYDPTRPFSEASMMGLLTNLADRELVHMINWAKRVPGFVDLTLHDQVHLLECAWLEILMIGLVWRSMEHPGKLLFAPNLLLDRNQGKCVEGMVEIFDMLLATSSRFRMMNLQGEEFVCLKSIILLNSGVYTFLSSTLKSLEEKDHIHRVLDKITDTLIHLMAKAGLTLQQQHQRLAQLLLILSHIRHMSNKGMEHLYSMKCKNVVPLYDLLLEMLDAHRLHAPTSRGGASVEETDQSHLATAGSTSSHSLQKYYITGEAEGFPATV
Procedure: Each pesticide and pesticide mixture was tested in quadruplicate in at least five experiments.

MCF-7 cells [3] = system: MCF-7 cells; design: method as in PMID 10789375; conditions: cited from earlier work
[4] = target: T3, human estrogen receptor α (hERα) (Homo sapiens, UniProt P03372); assay: Yeast-based estrogen screen (YES) assay, β-galactosidase reporter gene; format: cell-based; conditions: for YES EC01 / YES EC10: single substances; for YES EC01: concentration needed to elicit a 1% effect of 1 nM E2; for YES EC10: concentration needed to elicit a 10% effect of 1 nM E2
T3 construct: expressed in transfected cells
T3 sequence (P03372 whole entry): as above
Procedure: as §3, §2

hERα [5] = target: T2, hERα; assay: ERα CALUX assay (U2-OS cell-based luciferase reporter gene); design: expressed in transfected cells; host or cells: human U2-OS cells; conditions: for ERα CALUX EC01: 1% effect (of 1 nM E2); for ERα CALUX EC10: 10% effect (of 1 nM E2)
Procedure: as §1, §2

MCF-7 cells [6] = conditions: cited from earlier work
yeast cells = assay: Cytotoxicity in the YES assay (decrease in optical density/turbidity at 690 nm); format: cell-based; conditions: assumed equivalent to inhibition of yeast cell growth, data not shown
miR-21 = conditions: cited from earlier work
hERα [7] = target: T2, hERα; conditions: in combination with 3 pM E2
MCF-7 cells [8] = conditions: with or without E2; 27 (pirimicarb), ref 11 (propamocarb); cited from earlier work
estrogen receptor = system: estrogen receptor; design: method as in PMID 11884232; conditions: in combination with a saturating concentration of E2; cited from earlier work

| SMILES | estrogenic activity at the hERβ in the ERβ CALUX assay (in words) (hERβ) | ERβ CALUX EC01 (hERβ) | ERβ CALUX EC10 (hERβ) | solubility [1] | YES EC01 [4] | ERα CALUX EC01 (hERα [5]; single substances) | ERα CALUX EC10 (hERα [5]; single substances) | other results |
| --- | --- | --- | --- | --- | --- | --- | --- | --- |
| Clc1ccc(C(c2ccccc2Cl)C(Cl)(Cl)Cl)cc1 (stereo not shown) [2,4’-DDT, 2,4’-dichlorodiphenyltrichloroethane] | dose-dependent estrogenic activity | 0.055 µM | 0.603 µM | – | – | – | – | – |
| Clc1ccc(C(c2ccc(Cl)cc2)C(Cl)(Cl)Cl)cc1 [4,4’-DDT, 4,4’- dichlorodiphenyltrichloroethane] | dose-dependent estrogenic activity | 1.02 µM | – | – | – | – | – | concentrations leading to insolubility (tested in the YES assay) ([1]; YES assay medium): 50 to 500 µM |
| CCOP(=S)(OCC)Oc1nc(Cl)c(Cl)cc1Cl [chlorpyrifos] | – | – | – | 100 to 1000 µM (≈ 35.1 to 351 µg/mL) | 79.4 nM | 617 nM | 3.47 µM | maximum to which the effect of 1 nM E2 was enhanced (hERα [2]): 1.84; effect in MCF-7 proliferation assay compared with E2 (MCF-7 cells [3]): without exceeding the effect of E2 |
| OC(c1ccc(Cl)cc1)(c1cncnc1)c1ccccc1Cl (stereo not shown) [fenarimol] | dose-dependent estrogenic activity | 3.63 µM | 13.5 µM | – | 11700 nM | 794 nM | 2.82 µM | maximum to which the effect of 1 nM E2 was enhanced (hERα [2]): 4.36; effect in MCF-7 proliferation assay compared with E2 (MCF-7 cells [3]): without exceeding the effect of E2; maximum effect normalized to the effect of 1 nM E2 ([4]; single substance, YES assay): 2.69; YES EC10 [4]: 21.9 µM; maximum effect relative to the effect of 0.1 nM E2 (hERα [5]; single substances, ERα CALUX assay): 1.17 |
| CC1(C(=O)Nc2ccc(O)c(Cl)c2Cl)CCCCC1 [fenhexamid] | dose-dependent estrogenic activity | 1.17 µM | 5.01 µM | 100 µM (≈ 30.2 µg/mL) | – | – | – | E2-induced cell proliferation in MCF-7 cells (MCF-7 cells [6]): inhibition of E2-induced cell proliferation; concentrations decreasing turbidity by more than 30% in comparison to the solvent control (yeast cells): ≥ 500 µM; miR-21 expression in breast cancer cells (miR-21): increase of miR-21 expression |
| N#Cc1c[nH]cc1-c1cccc2c1OC(F)(F)O2 [fludioxonil] | – | – | – | 100 to 500 µM (≈ 24.8 to 124 µg/mL) | 832 nM | 363 nM | 1.26 µM | anti-estrogenic effect in the ERα CALUX assay (in words) (hERα [7]): an anti-estrogenic effect was not observed; inhibition of the E2 effect in the YES assay (hERα [2]; in combination with 1 nM E2): 44%; effect when combined with 1 nM E2 in the YES assay (in words) (hERα [2]): concentration-dependent anti-estrogenic effects; E2-induced cell proliferation in MCF-7 cells (MCF-7 cells [6]): inhibition of E2-induced cell proliferation; YES EC10 [4]: 26.3 µM; miR-21 expression in breast cancer cells (miR-21): increase of miR-21 expression |
| Cc1nc(N(C)C)nc(OC(=O)N(C)C)c1C [pirimicarb] | – | – | – | – | – | – | – | proliferation of MCF-7 cells in the E-Screen (MCF-7 cells [8]): did not stimulate the proliferation of MCF-7 cells; effect when combined with 1 nM E2 in the YES assay (in words) (hERα [2]): negative; effect in transactivation assay with MCF-7 BOS cells (estrogen receptor): induced a stronger effect; estrogenic activity in the YES assay (in words) ([4]; applied alone): negative; estrogenic activity in the ERα CALUX assay (in words) (hERα [5]; applied alone): negative |
| CCCOC(=O)NCCCN(C)C [propamocarb] | – | – | – | – | – | – | – | proliferation of MCF-7 cells in the E-Screen (MCF-7 cells [8]): did not stimulate the proliferation of MCF-7 cells |
